According to ChEMBL document CHEMBL1201862, “PubChem BioAssay data set” (2004):
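Briefly, cells in 96-well plates were exposed to five compound concentrations for 48 h, and endpoints were estimated by linear interpolation. Here, GI50 denotes the concentration required for 50% inhibition of growth.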 Activity calls are given as the source filed them. Rule as the data show it: active = GI50 up to about 1.1 µM and inactive = higher.

Assays:
Experiment in all cases: NCI anticancer screen, dose series, 48 h
786-0 = system: 786-0
A498 = system: A498
EKVX = system: EKVX
HOP-62 = system: HOP-62
LOX IMVI = system: LOX IMVI
M14 = system: M14
MCF7 = system: MCF7
MDA-N = system: MDA-N
MOLT-4 = system: MOLT-4
Malme-3M = system: Malme-3M
OVCAR-3 = system: OVCAR-3
OVCAR-5 = system: OVCAR-5
OVCAR-8 = system: OVCAR-8
SK-MEL-28 = system: SK-MEL-28
SK-MEL-5 = system: SK-MEL-5
SN12C = system: SN12C
SNB-75 = system: SNB-75
SR = system: SR
SW-620 = system: SW-620
UACC-257 = system: UACC-257

| Structure (SMILES) | GI50 (786-0) | GI50 (A498) | GI50 (EKVX) | GI50 (HOP-62) | GI50 (LOX IMVI) | GI50 (M14) | GI50 (MCF7) | GI50 (MDA-N) | GI50 (MOLT-4) | GI50 (Malme-3M) | GI50 (OVCAR-3) | GI50 (OVCAR-5) | GI50 (OVCAR-8) | GI50 (SK-MEL-28) | GI50 (SK-MEL-5) | GI50 (SN12C) | GI50 (SNB-75) | GI50 (SR) | GI50 (SW-620) | GI50 (UACC-257) |
| --- | --- | --- | --- | --- | --- | --- | --- | --- | --- | --- | --- | --- | --- | --- | --- | --- | --- | --- | --- | --- |
| Cc1ccc(C)c(C2NC(=O)c3ccccc3N2)c1 (stereo not given) | 1.76 µM (inactive) | 3.62 µM (inactive) | 5.07 µM (inactive) | 1.93 µM (inactive) | 2.05 µM (inactive) | 0.719 µM (active) | 0.454 µM (active) | 0.0986 µM (active) | 0.506 µM (active) | 0.668 µM (active) | 0.265 µM (active) | 6.18 µM (inactive) | 4.31 µM (inactive) | 12.5 µM (inactive) | 0.335 µM (active) | 4.69 µM (inactive) | 0.423 µM (active) | 0.555 µM (active) | 0.472 µM (active) | 12 µM (inactive) |
| COc1ccc2nc3cccc([N+](=O)[O-])c3c(NCCO)c2c1 | 0.0112 µM (active) | 0.0507 µM (active) | 0.0238 µM (active) | 0.0208 µM (active) | 0.00149 µM (active) | 0.00762 µM (active) | 0.018 µM (active) | 0.00895 µM (active) | 0.0255 µM (active) | 0.016 µM (active) | 0.0149 µM (active) | 0.0203 µM (active) | 0.0083 µM (active) | 0.0277 µM (active) | 0.0188 µM (active) | 0.019 µM (active) | 0.0942 µM (active) | 0.001 µM (active) | 0.00164 µM (active) | 0.0277 µM (active) |
| CC1=C(Br)C(=O)c2c(O)ccc(O)c2C1=O | 0.19 µM (active) | 1.7 µM (inactive) | 2.37 µM (inactive) | 0.849 µM (active) | 0.55 µM (active) | 0.431 µM (active) | 0.182 µM (active) | 0.251 µM (active) | 0.0258 µM (active) | 0.295 µM (active) | 0.74 µM (active) | 1.66 µM (inactive) | 0.481 µM (active) | 0.875 µM (active) | 0.435 µM (active) | 1.38 µM (inactive) | 1.51 µM (inactive) | 0.207 µM (active) | 0.163 µM (active) | 1.13 µM (inactive) |
| C/C(=C1/N=C(c2ccccc2)OC1=O)c1ccccc1 | > 100 µM (inactive) | > 100 µM (inactive) | > 100 µM (inactive) | > 100 µM (inactive) | 33.5 µM (inactive) | > 100 µM (inactive) | 82 µM (inactive) | > 100 µM (inactive) | 95.1 µM (inactive) | 53.2 µM (inactive) | 74.5 µM (inactive) | > 100 µM (inactive) | > 100 µM (inactive) | > 100 µM (inactive) | > 100 µM (inactive) | > 100 µM (inactive) | > 100 µM (inactive) | 39.5 µM (inactive) | 57.5 µM (inactive) | > 100 µM (inactive) |
| COc1c2occc2c(N)c2ccc(=O)oc12 | > 100 µM (inactive) | > 100 µM (inactive) | 51.9 µM (inactive) | > 100 µM (inactive) | > 100 µM (inactive) | > 100 µM (inactive) | > 100 µM (inactive) | > 100 µM (inactive) | > 100 µM (inactive) | > 100 µM (inactive) | > 100 µM (inactive) | > 100 µM (inactive) | > 100 µM (inactive) | > 100 µM (inactive) | 35 µM (inactive) | > 100 µM (inactive) | 17.2 µM (inactive) | > 100 µM (inactive) | > 100 µM (inactive) | > 100 µM (inactive) |
| CC1=C(C(=O)Nc2ccccc2)C2(CCCCC2)C(C#N)=C(SCC(=O)Nc2ccc(Br)cc2)N1 | 4.1 µM (inactive) | 4.56 µM (inactive) | 2.15 µM (inactive) | 10.1 µM (inactive) | 3.43 µM (inactive) | 3.61 µM (inactive) | 4.51 µM (inactive) | 3.41 µM (inactive) | 2.82 µM (inactive) | 1.82 µM (inactive) | 3.27 µM (inactive) | 4.99 µM (inactive) | 5.58 µM (inactive) | 5.73 µM (inactive) | 3.46 µM (inactive) | 4.23 µM (inactive) | 8.51 µM (inactive) | 2.31 µM (inactive) | 5.43 µM (inactive) | 7.28 µM (inactive) |
| CC(C)=CC[S+]([O-])c1ccccc1NC1=CC(=O)CC(C)(C)C1 (stereo not given) | > 100 µM (inactive) | > 100 µM (inactive) | > 100 µM (inactive) | 0.124 µM (active) | > 100 µM (inactive) | > 100 µM (inactive) | > 100 µM (inactive) | > 100 µM (inactive) | > 100 µM (inactive) | > 100 µM (inactive) | > 100 µM (inactive) | > 100 µM (inactive) | > 100 µM (inactive) | > 100 µM (inactive) | > 100 µM (inactive) | > 100 µM (inactive) | > 100 µM (inactive) | > 100 µM (inactive) | > 100 µM (inactive) | > 100 µM (inactive) |
